Experimental data reported in patent publication US6110494A, “Cisapride mini-tablet formulations” (Elan Corporation, plc, priority 1997, dated 2000).

Columns and labels:
[1] = extended release, viscous hydrophilic polymers; cited from earlier work
[2] = cited from earlier work
[3] = Solubility of cisapride and its salt

| Compound | dissolution rates [1] | effect of food on absorption ([2]; food) | half life ([2]; in vivo) | absorption in distal regions of the gastrointestinal tract ([2]; more distal regions) | solubilisation at pH 6.8 [3] |
| --- | --- | --- | --- | --- | --- |
| COc1cc(N)c(Cl)cc1C(=O)NC1CCN(CCCOc2ccc(F)cc2)CC1OC.O=C(O)C(O)C(O)C(=O)O (single isomer, unassigned; (+)) [(+)-cisapride-(L) tartrate] | equal dissolution rates |  |  |  |  |
| COc1cc(N)c(Cl)cc1C(=O)NC1CCN(CCCOc2ccc(F)cc2)CC1OC (stereo not drawn) [Cisapride] |  | enhancing effect on the absorption | relatively short half life | significant decrease in absorption | SLS (sodium lauryl sulphate) was required to solubilise |
| COc1cc(N)c(Cl)cc1C(=O)NC1CCN(CCCOc2ccc(F)cc2)CC1OC (single isomer, unassigned; (-)) [(-)-cisapride-(L)tartrate] | equal dissolution rates |  |  |  |  |
